Assay results: publication PMC9027176 (Viruses, 2022)
Read-outs that look alike come from different tables or passages of the source. Where no end group is shown, it is not given here.

Target: KsBcl-2 (Human herpesvirus 8 type P, UniProt F5HGJ3, V117A)
Assay: biochemical
Format: binding, Kaposi's sarcoma-associated herpesvirus

KsBcl-2, sequence (F5HGJ3 1-146 V117A): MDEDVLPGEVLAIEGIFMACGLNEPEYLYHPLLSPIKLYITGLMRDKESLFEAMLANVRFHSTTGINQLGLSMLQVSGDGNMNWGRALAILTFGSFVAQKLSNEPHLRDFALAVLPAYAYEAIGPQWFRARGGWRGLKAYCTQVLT

Compound	IC50 (SEM)	IC50
VPGRLAEVCAVLLRLGDELEMIRPSV [Bok]	198 ± 13 nM	
VPQDASTKKLSECLKRIGDELDSNMELQ [Bax]	16 nM	
PAELEVECATQLRRFGDKLNFRQKLL [Noxa]		220 nM
CC[C@H](C)[C@H](NC(=O)[C@H](CC(N)=O)NC(=O)[C@H](CCCNC(=N)N)NC(=O)[C@@H](NC(=O)[C@@H](NC(=O)[C@H](CC(=O)O)NC(=O)[C@H](CCC(=O)O)NC(=O)[C@H](CCC(N)=O)NC(=O)[C@H](CO)NC(=O)[C@H](CCC(=O)O)NC(=O)[C@@H](N)CO)[C@@H](C)CC)[C@@H](C)CC)C(=O)N[C@@H](C)C(=O)N[C@@H](CCCNC(=N)N)C(=O)N[C@@H](Cc1c[nH]cn1)C(=O)N[C@@H](CC(C)C)C(=O)N[C@@H](C)C(=O)N[C@@H](CCC(N)=O)C(=O)N[C@H](C(=O)NCC(=O)N[C@@H](CC(=O)O)C(=O)N[C@@H](CO)C(=O)N[C@@H](CCSC)C(=O)N[C@@H](CC(=O)O)C(=O)N[C@@H](CCCNC(=N)N)C(=O)N[C@@H](CO)C(=O)N[C@H](C(=O)N1CCC[C@H]1C(=O)N1CCC[C@H]1C(=O)NCC(=O)N[C@@H](CC(C)C)C(=O)N[C@H](C(=O)N[C@@H](CC(N)=O)C(=O)NCC(=O)N[C@@H](CC(C)C)C(=O)O)C(C)C)[C@@H](C)CC)C(C)C [Bid]	20 ± 9 nM	
CC[C@H](C)[C@H](NC(=O)[C@H](CS)NC(=O)[C@H](C)NC(=O)[C@H](CC(C)C)NC(=O)[C@H](CCCNC(=N)N)NC(=O)[C@H](CC(C)C)NC(=O)[C@H](C)NC(=O)[C@H](CC(C)C)NC(=O)[C@H](C)NC(=O)[C@H](CC(=O)O)NC(=O)[C@H](CO)NC(=O)CNC(=O)[C@H](CCC(=O)O)NC(=O)[C@@H](N)CCSC)C(=O)NCC(=O)N[C@@H](CC(=O)O)C(=O)N[C@@H](CCC(=O)O)C(=O)N[C@@H](CCSC)C(=O)N[C@@H](CC(=O)O)C(=O)N[C@H](C(=O)N[C@@H](CO)C(=O)N[C@@H](CC(C)C)C(=O)N[C@@H](CCCNC(=N)N)C(=O)N[C@@H](C)C(=O)N1CCC[C@H]1C(=O)O)C(C)C [Bik]	64 ± 4 nM	
PSSTMGQVGRQLAIIGDDINRRYDSE [Bak]	8 nM	
CC[C@H](C)[C@H](NC(=O)[C@H](CCC(=O)O)NC(=O)[C@H](CCCN=C(N)N)NC(=O)[C@H](C)NC(=O)[C@H](Cc1c[nH]c2ccccc12)NC(=O)[C@H](CCC(N)=O)NC(=O)[C@H](CCC(=O)O)NC(=O)[C@@H](N)CCC(=O)O)C(=O)NCC(=O)N[C@@H](C)C(=O)N[C@@H](CCC(N)=O)C(=O)N[C@@H](CC(C)C)C(=O)N[C@@H](CCCN=C(N)N)C(=O)N[C@@H](CCCN=C(N)N)C(=O)N[C@@H](CCSC)C(=O)N[C@@H](C)C(=O)N[C@@H](CC(=O)O)C(=O)N[C@@H](CC(=O)O)C(=O)N[C@@H](CC(C)C)C(=O)N[C@@H](CC(N)=O)C(=O)N[C@@H](C)C(=O)N[C@@H](CCC(N)=O)C(=O)N[C@@H](Cc1ccc(O)cc1)C(=O)N[C@@H](CCC(=O)O)C(=O)N[C@@H](CCCN=C(N)N)C(=O)N[C@@H](CCCN=C(N)N)C(=O)O [Puma]	26 ± 9 nM	
